What was measured:
[1] = system: Abca4−/− Rdh8−/− mice; assay: A2E quantification in eyes of Abca4−/− Rdh8−/− mice (HPLC-MS/MS); type: in vivo, mouse; settings: 6 months
Text: To test the preventive/curative action of oral administration of BIO203 against retinal neurodegeneration, a total of 27 Pigmented Abca4^−/− Rdh8^−/− mice carrying the Rpe65-Leu450 mutation and the rd8 mutation in the Crb1 gene from Case Western Reserve University of eleven to twelve months of age were used. Three groups of 9 males received control chow (Teklad Custom Research Diet 2016© pellets) or chow containing LD-BIO203 or HD-BIO203 orally for 6 months. After 6 months of complementation, ERG was measured in both eyes. In the control group, two mice died during the period of complementation and one mouse during ERG measurement. In the HD-BIO203 group, one mouse died before the end of complementation, and 3 mice died just after anesthesia. All the mice that received LD-BIO203 were alive until the end of the complementation. One of them died during the photopic ERG measurement. Blood was collected by submandibular puncture in all mice before being euthanized. In each group, half of the eyes were removed for A2E and BIO203 measurements, and half of the eyes were used for histological analyses and photoreceptor layer quantification.
A2E quantification in eyes was performed using the HPLC-MS/MS method, which has been described previously.

[2] = system: Abca4−/− Rdh8−/− mice; assay: Photoreceptor nuclear layer thickness after 6 months of oral complementation in Abca4−/− Rdh8−/− mice; type: in vivo, mouse; settings: HD pellets, 17-month-old mice
Procedure: At the end of the measurement period on Day 7, rats were euthanized by an intraperitoneal injection of pentobarbital. Immediately after euthanasia, both eyeballs were sampled, fixed in Davidson’s solution, and processed for histology. Sections (5 to 7 µm thick) were performed along the vertical meridian and stained with Haematoxylin/Eosin stain. The vertical meridian included the optic nerve. […] The thickness of the outer nuclear layer was measured on each point. […] Histology and photoreceptor counting in mice were performed as previously described.
A custom rodent diet was formulated and irradiated (25 kGy) by Envigo RMS SARL (Gannat, France). Low dose (LD)-BIO203 (50 μg/g) and high dose (HD)-BIO203 (500 μg/g) were incorporated into Teklad Custom Research Diet 2016© pellets. […] The concentration of BIO203 in the customized pellets at the end of each batch was determined by HPLC MS/MS. […] We calculated that in the LD group, male mice weighing 31.63 g after 2 months of complementation consumed 4.16 g of pellets, and in the HD group, male mice weighing 34.11 g after 2 months of complementation consumed 4.11 g of pellets every day, which correspond to a daily dose of 6.04 ± 0.46 mg/kg for the LD-BIO203 pellets and 55.91 ± 2.93 mg/kg for the HD-BIO203 pellets. […]

[3] = system: PPAR; assay: PPAR transactivation assay (Cignal reporter, luciferase) induced by A2E; type: cell-based, pig; settings: compound 20 μM; A2E 20 μM; RPE cells
Procedure: Transactivation assays were performed as previously described. Briefly, RPE cells were plated in DMEM 2% FCS at a density of 6 × 10^4 cells/cm^2. The next day transfections using the Cignal Reporter Assay Kits for PPAR, RXR, AP-1, and NF-κB were performed with Lipofectamine and Plus Reagent in serum-free medium. Three hours after the transfection, A2E and/or BIO203, both at 20 μM, were added to the culture medium for 24 h. Luciferase activity was measured using the Dual-Luciferase Reporter Assay System and with a luminometer (Infinite M1000 from Tecan, Mannedorf, Switzerland). At least 3 independent transfections were performed in triplicate for each condition.

[4] = system: Abca4−/− Rdh8−/− mice; assay: ERG after 6 months of oral complementation in Abca4−/− Rdh8−/− mice; type: in vivo, mouse
Procedure: The ERG in rats was performed using the electrophysiological system RETI-animal® from Roland Consult. ERG was recorded on both eyes from overnight dark-adapted animals. Rats were anesthetized by an intramuscular injection of a mix of Rompun® (xylazine)/Imalgene® (ketamine) before ERG measurement. Ten to fifteen minutes before measurement, one drop of Mydriaticum® (0.5% tropicamide) was instilled for pupillary dilatation. The A-wave and B-wave implicit times (ms) and amplitudes (µV) were measured for each ERG. The B-wave amplitude (value and %) was given as informative data. ERG parameters: Ganzfeld Q450C, Color: white maximum, Maximum intensity: 3 cd/m^2 (0 dB); Duration 0.24 ms; number of flashes: 1, Filter: 50 Hz, Impedance threshold: 50 kΩ. For scotopic ERGs, the A-wave amplitudes were measured from the baseline to the peak of the negative potential, whereas B-wave amplitudes were measured from the trough of the A-wave to the peak of the positive potential. The recordings obtained from these analyses were tabulated and normalized (%) for each eye. Group means, standard deviation, and median values were calculated, considering each eye from one animal as a separate value. ERG recordings in mice were performed as previously described.
A custom rodent diet was formulated and irradiated (25 kGy) by Envigo RMS SARL (Gannat, France). Low dose (LD)-BIO203 (50 μg/g) and high dose (HD)-BIO203 (500 μg/g) were incorporated into Teklad Custom Research Diet 2016© pellets. The pellets were stored at −20 °C until use and were administered ad libitum as the standard Teklad Global Rodent Diet 2016© used for the control group. The concentration of BIO203 in the customized pellets at the end of each batch was determined by HPLC MS/MS. The mean concentration was 46 μg/g ± 3.5 μg/g of pellet for the LD and 464 μg/g ± 24.3 μg/g of pellet for the HD. We calculated that in the LD group, male mice weighing 31.63 g after 2 months of complementation consumed 4.16 g of pellets, and in the HD group, male mice weighing 34.11 g after 2 months of complementation consumed 4.11 g of pellets every day, which correspond to a daily dose of 6.04 ± 0.46 mg/kg for the LD-BIO203 pellets and 55.91 ± 2.93 mg/kg for the HD-BIO203 pellets.
To test the preventive/curative action of oral administration of BIO203 against retinal neurodegeneration, a total of 27 Pigmented Abca4^−/− Rdh8^−/− mice carrying the Rpe65-Leu450 mutation and the rd8 mutation in the Crb1 gene from Case Western Reserve University of eleven to twelve months of age were used. […] After 6 months of complementation, ERG was measured in both eyes. […] In each group, half of the eyes were removed for A2E and BIO203 measurements, and half of the eyes were used for histological analyses and photoreceptor layer quantification.

[5] = system: albino rats exposed to blue-light-induced photoreceptor degeneration; set-up: method as in PMID 27992460; settings: IP; cited from earlier work
[6] = system: VEGF; set-up: method as in PMID 34544906; settings: norbixin at 20 mM (so in the source); cited from earlier work

SMILES | change of A2E concentration in the retinas compared with control pellets ([1]; HD pellets, not significant, p = 0.407) [%] | amount of ocular A2E compared with control pellets ([1]; LD pellets) | thickness of the photoreceptor nuclear layer compared with LD or control pellets [2] | inhibition of PPAR transactivation induced by A2E [3] | photopic B wave ERG compared with control pellets ([4]; HD pellets) | scotopic A wave ERG compared with control pellets ([4]; HD pellets, flash intensities 1 and 10 cd.s/m^2, p < 0.05) | scotopic B wave ERG compared with control pellets ([4]; HD pellets, flash intensity 30 cd.s/m^2, p < 0.05) | effect on the visual function (ERG) ([4]; LD pellets) | lowest dose giving the maximal retinal neuroprotection and optimal preservation of visual functions [5] [mg/kg] | effect on VEGF mRNA expression [6]
COC1CCCN(C(=O)/C=C/C(C)=C/C=C/C(C)=C/C=C/C=C(C)/C=C/C=C(C)\C=C\C(=O)O)C1 (stereo not shown) [BIO203] | −21.7 | did not differ significantly | No difference | entirely inhibits | no significant difference | significantly superior | reduced the loss | No effect |  | 
CC(=C/C=C/C(C)=C/C=C/C=C(C)/C=C/C=C(C)/C=C/C(=O)O)/C=C/C(=O)O [norbixin, 9′-cis-norbixin] |  |  |  |  |  |  |  |  | 50 | significantly reduced
